According to publication PMC6891762, “Novel Isoxazolidine and γ-Lactam Analogues of Homonucleosides” (Molecules, 2019):

Columns and labels:
Type in all cases: cell-based
[1] = system: NCI-H460 (lung carcinoma) cells; assay: Cytostatic activity, NCI-H460; conditions: concentration causing 50% decrease in cell proliferation
Procedure: (§1) The 50% cytostatic inhibitory concentration (IC50) causing a 50% decrease in cell proliferation was determined for all isolated isoxazolidines 14 and γ-lactams 15 toward nine cancerous cell lines (Capan-1 (pancreatic adenocarcinoma), Hap1 (chronic myeloid leukemia), HCT-116 (colorectal carcinoma), NCI-H460 (lung carcinoma), DND-41 (acute lymphoblastic leukemia), HL-60 (acute myeloid leukemia), K-562 (chronic myeloid leukemia), MM.1S (multiple myeloma) and Z-138 (non-Hodgkin lymphoma)) and normal retina (non-cancerous) cells (hTERT RPE-1). Docetaxel, etoposide and stauroporine were used as the reference compounds.
(§2) All assays were performed in 96-well microtiter plates. To each well was added (5−7.5) × 10^4 tumor cells and a given amount of the test compound. The cells were allowed to proliferate at 37 °C in a humidified, CO2-controlled atmosphere. At the end of the incubation period, the cells were counted in a Coulter counter. The IC50 (50% inhibitory concentration) was defined as the concentration of the compound that inhibited cell proliferation by 50%.

[2] = system: Hap1 (chronic myeloid leukemia) cells; assay: Cytostatic activity, Hap1; conditions: concentration causing 50% decrease in cell proliferation
Procedure: as §1, §2

[3] = system: Capan-1 (pancreatic adenocarcinoma) cells; assay: Cytostatic activity, Capan-1
Procedure: as §1, with “RPE-1).” for “RPE-1). Docetaxel, etoposide and stauroporine were used as the reference compounds.”
as §2, with “counter.” for “counter. The IC50 (50% inhibitory concentration) was defined as the concentration of the compound that inhibited cell proliferation by 50%.”

[4] = system: hTERT RPE-1 normal retina (non-cancerous) cells; assay: Cytostatic activity, normal retina cells; conditions: concentration causing 50% decrease in cell proliferation
Procedure: as §1, §2

[5] = system: HCT-116 (colorectal carcinoma) cells; assay: Cytostatic activity, HCT-116; conditions: concentration causing 50% decrease in cell proliferation
Procedure: as §1, §2

[6] = Homo sapiens, CAPAN-1, concentration causing 50% decrease in cell proliferation
[7] = concentration causing 50% decrease in cell proliferation

Structure (SMILES)	IC50 ([1]; Homo sapiens, NCI-H460)	IC50 ([2]; Homo sapiens, HAP1)	IC50 [3, 6]	IC50 ([5]; Homo sapiens, HCT-116)	IC50 [1]	IC50 [2]	IC50 [3, 7]	IC50 [5]	IC50 (µM) HCT-116 Colorectal Carcinoma [5]	IC50 ([4]; hTERT-RPE1)	IC50 [4]
COC(=O)[C@H]1C[C@H](Cn2cc(F)c(=O)[nH]c2=O)N(C)O1 (relative stereo) [trans-14c, Methyl trans-3-{[5-fluoro-2,4-dioxo-3,4–dihydropyrimidin-1(2H)-yl]metyl}-2-methylisoxazolidine-5-carboxylate]	–	–	–	–	> 100 µM	> 100 µM	49 µM	> 100 µM	–	–	> 100 µM
COC(=O)[C@@H]1C[C@H](Cn2cc(I)c(=O)[nH]c2=O)N(C)O1 (relative stereo) [cis-14f, Methyl cis-3-{[5-iodo-2,4-dioxo-3,4–dihydropyrimidin-1(2H)-yl]metyl}-2-methylisoxazolidine-5-carboxylate]	–	–	–	–	44.6 µM	40.9 µM	42 µM	57.9 µM	–	–	–
COC(=O)[C@@H]1C[C@H](Cn2cc(C)c(=O)[nH]c2=O)N(C)O1 (relative stereo) [cis-14b, Methyl cis-2-methyl-3-{[5-methyl-2,4-dioxo-3,4–dihydropyrimidin-1(2H)-yl]methyl}isoxazolidine-5-carboxylate]	60.3 µM	63 µM	55.2 µM	> 100 µM	–	–	–	–	–	> 100 µM	–
COC(=O)[C@H]1C[C@H](Cn2cc(C)c(=O)[nH]c2=O)N(C)O1 (relative stereo) [trans-14b, Methyl trans-2-methyl-3-{[5-methyl-2,4-dioxo-3,4–dihydropyrimidin-1(2H)-yl]methyl}isoxazolidine-5-carboxylate]	> 100 µM	> 100 µM	51.3 µM	> 100 µM	–	–	–	–	–	> 100 µM	–
CN1C(=O)[C@H](O)C[C@@H]1Cn1cc(Cl)c(=O)[nH]c1=O (relative stereo) [cis-15e, cis-5-Chloro-1-[(4-hydroxy-1-methyl-5-oxopyrrolidin-2-yl)methyl]pyrimidine-2,4(1H,3H)-dione]	28.6 µM	51.5 µM	28 µM	58.5 µM	–	–	–	–	inhibited the proliferation	> 100 µM	–
COc1cc([C@@H]2c3cc4c(cc3[C@@H](O[C@@H]3O[C@@H]5CO[C@@H](C)O[C@H]5[C@H](O)[C@H]3O)[C@H]3COC(=O)[C@H]23)OCO4)cc(OC)c1O [Etoposide, reference compound]	1.35 µM	0.04 µM	0.15 µM	1.03 µM	–	–	–	–	–	0.23 µM	–
CN1C(=O)[C@H](O)C[C@@H]1Cn1cnc2c(=O)n(C)c(=O)n(C)c21 (relative stereo) [cis-15h, cis-9-[(4-Hydroxy-1-methyl-5-oxopyrrolidin-2-yl)methyl]-1,3-dimethyl-3,9–dihydro-1H-purine-2,6-dione]	42.5 µM	50.2 µM	18.2 µM	43.5 µM	–	–	21.5 µM	–	–	> 100 µM	–
CC(=O)O[C@@]12CO[C@@H]1C[C@H](O)[C@@]1(C)C(=O)[C@H](O)C3=C(C)[C@@H](OC(=O)[C@H](O)[C@@H](NC(=O)OC(C)(C)C)c4ccccc4)C[C@@](O)([C@@H](OC(=O)c4ccccc4)[C@H]21)C3(C)C [Docetaxel, reference compound]	0.89 µM	1.19 µM	0.95 µM	0.25 µM	–	–	–	–	–	25 µM	–
COC(=O)[C@H]1C[C@H](Cn2cc(Br)c(=O)[nH]c2=O)N(C)O1 (relative stereo) [trans-14d, Methyl trans-3-{[5-bromo-2,4-dioxo-3,4–dihydropyrimidin-1(2H)-yl]metyl}-2-methylisoxazolidine-5-carboxylate]	–	–	–	–	76.1 µM	> 100 µM	67.8 µM	> 100 µM	–	–	> 100 µM
CN1C(=O)[C@@H](O)C[C@H]1CN1CCC(=O)NC1=O [cis-15g, cis-1-[(4-Hydroxy-1-methyl-5-oxopyrrolidin-2-yl)metyl]dihydropyrimidine-2,4(1H,3H)-dione]	42.7 µM	56.3 µM	41.3 µM	> 100 µM	–	–	–	–	–	> 100 µM	–
COC(=O)[C@@H]1C[C@H](Cn2cc(F)c(=O)[nH]c2=O)N(C)O1 (relative stereo) [cis-14c, Methyl cis-3-{[5-fluoro-2,4-dioxo-3,4–dihydropyrimidin-1(2H)-yl]metyl}-2-methylisoxazolidine-5-carboxylate]	–	–	–	–	> 100 µM	> 100 µM	> 100 µM	> 100 µM	–	–	> 100 µM
COC(=O)[C@@H]1C[C@H](Cn2cc(Cl)c(=O)[nH]c2=O)N(C)O1 (relative stereo) [cis-14e, Methyl cis-3-{[5-chloro-2,4-dioxo-3,4–dihydropyrimidin-1(2H)-yl]metyl}-2-methylisoxazolidine-5-carboxylate]	–	–	–	–	48.8 µM	44.2 µM	51.2 µM	26.7 µM	–	–	> 100 µM
COC(=O)[C@@H]1C[C@H](Cn2ccc(=O)[nH]c2=O)N(C)O1 (relative stereo) [cis-14a, Methyl cis-3-{[2,4-dioxo-3,4–dihydropyrimidin-1(2H)-yl]methyl}-2-methylisoxazolidine-5-carboxylate]	> 100 µM	> 100 µM	54.8 µM	> 100 µM	–	–	–	–	–	> 100 µM	–
CN1C(=O)C(O)C[C@H]1Cn1cc(Br)c(=O)[nH]c1=O (stereo partly drawn) [cis-15d:trans-15d (53:47)]	49.4 µM	49.9 µM	52.1 µM	90 µM	–	–	–	–	–	> 100 µM	–
CN[C@@H]1C[C@H]2O[C@@](C)([C@@H]1OC)n1c3ccccc3c3c4c(c5c6ccccc6n2c5c31)C(=O)NC4 [Stauroporine, reference compound]	–	–	–	–	11.5 µM	3.55 µM	–	0.09 µM	–	–	0.25 µM

Now from value to compound, other results behind:

IC50 ([1]; Homo sapiens, NCI-H460)	IC50 ([2]; Homo sapiens, HAP1)	IC50 [3, 6]	IC50 ([5]; Homo sapiens, HCT-116)	IC50 [1]	IC50 [2]	IC50 [3, 7]	IC50 [5]	IC50 (µM) HCT-116 Colorectal Carcinoma [5]	Structure (SMILES)	IC50 ([4]; hTERT-RPE1)	IC50 [4]
42.1 µM	58.5 µM	24.8 µM	> 100 µM	–	–	–	–	–	CN1C(=O)[C@@H](O)C[C@@H]1Cn1cc(Br)c(=O)[nH]c1=O (relative stereo) [trans-15d, trans-5-Bromo-1-[(4-hydroxy-1-methyl-5-oxopyrrolidin-2-yl)methyl]pyrimidine-2,4(1H,3H)-dione]	> 100 µM	–
–	–	–	–	48.6 µM	58.1 µM	38.3 µM	61 µM	–	COC(=O)[C@H]1C[C@H](CN2CCC(=O)NC2=O)N(C)O1 (relative stereo) [trans-14g, Methyl trans-3-{[2,4-dioxotetrahydropyrimidin-1(2H)-yl]metyl}-2-methylisoxazolidine-5-carboxylate]	–	> 100 µM
69.3 µM	49.4 µM	46.7 µM	> 100 µM	–	–	–	–	–	CN1C(=O)[C@H](O)C[C@H]1CN1CCC(=O)NC1=O [trans-15g, trans-1-[(4-Hydroxy-1-methyl-5-oxopyrrolidin-2-yl)metyl]dihydropyrimidine-2,4(1H,3H)-dione]	> 100 µM	–
–	–	–	–	41.1 µM	47 µM	41.4 µM	53.5 µM	–	COC(=O)[C@H]1C[C@H](Cn2cc(I)c(=O)[nH]c2=O)N(C)O1 (relative stereo) [trans-14f, Methyl trans-3-{[5-iodo-2,4-dioxo-3,4–dihydropyrimidin-1(2H)-yl]metyl}-2-methylisoxazolidine-5-carboxylate]	–	> 100 µM
–	–	–	–	41.9 µM	42.7 µM	38.5 µM	43.5 µM	–	COC(=O)[C@H]1C[C@H](Cn2cc(Cl)c(=O)[nH]c2=O)N(C)O1 (relative stereo) [trans-14e, Methyl trans-3-{[5-chloro-2,4-dioxo-3,4–dihydropyrimidin-1(2H)-yl]metyl}-2-methylisoxazolidine-5-carboxylate]	–	> 100 µM
55.6 µM	86.5 µM	49.2 µM	53.3 µM	–	–	–	–	–	Cc1cn(C[C@H]2C[C@H](O)C(=O)N2C)c(=O)[nH]c1=O (relative stereo) [trans-15b, trans-1-[(4-Hydroxy-1-methyl-5-oxopyrrolidin-2-yl)methyl]-5-methylpyrimidine-2,4(1H,3H)-dione]	> 100 µM	–
51.2 µM	53.6 µM	43.2 µM	60.9 µM	–	–	–	–	–	COC(=O)[C@H]1C[C@H](Cn2cnc3c(=O)n(C)c(=O)n(C)c32)N(C)O1 (relative stereo) [trans-14h, Methyl trans-3-[(1,3-dimethyl-2,6-dioxo-1,2,3,6-tetrahydro-9H-purin-9-yl)methyl]-2-methylisoxazolidine-5-carboxylate]	> 100 µM	–
